According to patent US20050279350A1, “Methods and apparatus for relieving headaches, rhinitis and other common ailments” (priority 1999, published 2005):
Like-named read-outs stand apart in the source and are kept apart here. Marks after values point to notes of the source that are not given here.

Legend:
[1] = system: human subjects with allergies (allergic rhinitis); type: in vivo; conditions: for 24-hr. Recur Rate / After Effects / Symptom Free, Minutes Post-Treatment / Symptom, Relief, Minutes Post-Treatment: moderate, severe; for Est. Rate / Est. Total Dose / Number of Doses / Single Dose Duration / Total Dose / Total Treatment Time: self-selected effective dose
Description: (§1) The test device was a hand-held, multi-dose, disposable, dispenser that was approximately 3 to 4 inches long and 6/8 to ⅞ inches in diameter constructed as described above. The device consisted of a plastic twist-top flow regulator mounted on top of a pressurized steel cartridge containing liquid carbon dioxide. The tip of the flow regulator has a nosepiece that is the optimal size and configuration to place against and seal off a nostril for administration of the gas. In a number of subjects, the effective nasal and oral carbon dioxide flow rates, and maximum tolerable nasal and oral flow rates, were measured using a laboratory apparatus. This apparatus consisted of a flow regulator connected via tubing to a flow meter and a large tank of carbon dioxide. These flow data were used, together with the number of seconds gas was administered during therapy, to calculate the estimated dose of gas in milliliters.
Of the total of 15 subjects included in the analysis, 11 used the treatment for 35 headaches and 9 subjects used it for 9 allergy attacks. […] subjects treated both headache and allergy but on different days. The subjects included adults, elderly, and children of both sexes in good general health, having mild, moderate, and severe headaches or having allergies to plant, animal, or airborne allergens. The device was used to treat migraine and tension-type headaches, jaw pain, and allergies (allergic rhinitis, with symptoms that included sinus congestion, sneezing, and itchy throat and eyes). There was no limitation on the duration of symptoms before treatment with the device. Subjects with no prior use of the device and those who have used it (to treat allergy symptoms) previously were included.
Carbon dioxide (100%) was administered nasally by the subject for a few seconds via a nostril to fill the nasal passages while holding their breath, or taking breaths of room air occasionally if the dose was lengthy. The gas exited the other nostril. Such nasal administration is similar to presently marketed nasal inhalers except that the administered gas was not inhaled. […] Subjects took as many doses as they needed for relief. It is important to note that there were no number of doses, duration of dose, time between doses, or gas flow rate specified for the user. Subjects chose their own regimen for symptom relief. Similarly, in medical practice today, gas therapy is a “titrate to effect” therapy without a specified dosage.
For allergy, the rating of the intensity level depends on the extent to which the allergy interferes with the ability to function. […] The same outcome measures as for headache were used for allergy.

[2] = system: human subjects; test: Effective and maximum tolerable nasal and oral carbon dioxide flow rates measured with laboratory apparatus; type: in vivo
Description: as §1
Initially, the effective nasal and oral, and maximum tolerable nasal and oral carbon dioxide flow rates were measured in seven subjects using a laboratory apparatus. The flow rate selected that is effective or the maximum tolerable rate varies with the individual. At low flow rates, the presence of the carbon dioxide produces a “tingling” sensation similar to that produced during drinking of carbonated beverages that inadvertently enter the nasal passages e.g., “bubbles up the nose”. This is the effective rate and the tingling is a welcome sensation because it usually coincides with immediate relief of symptoms. Above a certain subjectively determined flow rate the sensation becomes unpleasant, which may be described as a “stinging” or “burning” sensation. At a still higher flow rate (maximum tolerable rate), the stinging sensation becomes intolerable and subjects remove the device from their nostril. Also, subjects are more sensitive to the first does of a series for one attack; subsequent doses give less or no sensation. […] The typical effective rate nasally was 1 to 5 ml/sec and 5 to 10 ml/sec orally.

[3] = Allergy (N = 8), more stringent outcome measure definitions
[4] = Allergy (N = 8), more stringent outcome measure definitions, 1 min post-treatment
[5] = Allergy (N = 8), more stringent outcome measure definitions, 5 min post-treatment
[6] = Allergy (N = 8), more stringent outcome measure definitions, 15 min post-treatment
[7] = Allergy (N = 8), more stringent outcome measure definitions, 30 min post-treatment
[8] = Allergy (N = 9), mild, 1 min post-treatment
[9] = Allergy (N = 9), mild, 5 min post-treatment
[10] = Allergy (N = 9), mild, 15 min post-treatment
[11] = Allergy (N = 9), mild, 30 min post-treatment
[12] = subject five, experience w/device 0
[13] = subject four, experience w/device 0
[14] = subject one, experience w/device >1000
[15] = subject six, experience w/device 0
[16] = subject three, experience w/device >1000
[17] = subject two, experience w/device 0
[18] = subject, experience w/device >10

O=C=O [carbon dioxide]
24-hr. Recur Rate [1, 3]: 50%
After Effects [1, 3]: 0%
Symptom Free, Minutes Post-Treatment [1, 4]: 25%
Symptom, Relief, Minutes Post-Treatment [1, 4]: 25%
Symptom Free, Minutes Post-Treatment [1, 5]: 63%
Symptom, Relief, Minutes Post-Treatment [1, 5]: 75%
Symptom Free, Minutes Post-Treatment [1, 6]: 88%
Symptom, Relief, Minutes Post-Treatment [1, 6]: 100%
Symptom Free, Minutes Post-Treatment [1, 7]: 88%
Symptom, Relief, Minutes Post-Treatment [1, 7]: 100%
After Effects ([1]; Allergy (N = 9), mild): 0%
Symptom Free, Minutes Post-Treatment [1, 8]: 33%
Symptom, Relief, Minutes Post-Treatment [1, 8]: 33%
Symptom Free, Minutes Post-Treatment [1, 9]: 67%
Symptom, Relief, Minutes Post-Treatment [1, 9]: 78%
Symptom Free, Minutes Post-Treatment [1, 10]: 89%
Symptom, Relief, Minutes Post-Treatment [1, 10]: 100%
Symptom Free, Minutes Post-Treatment [1, 11]: 89%
Symptom, Relief, Minutes Post-Treatment [1, 11]: 100%
24-hr. Recur Rate ([1]; Allergy (N = 9), mild, N=4 for this determination): 50%
Est. Rate ([1]; Allergy-All): 3 mL/s
Est. Total Dose ([1]; Allergy-All): 133 mL
Number of Doses ([1]; Allergy-All): 2 #
Single Dose Duration ([1]; Allergy-All): 13 s
Total Dose ([1]; Allergy-All): 39 s
Total Treatment Time ([1]; Allergy-All): 5 min
Est. Rate ([1]; Allergy-Mild): 5 mL/s
Est. Total Dose ([1]; Allergy-Mild): 200 mL
Number of Doses ([1]; Allergy-Mild): 2 #
Single Dose Duration ([1]; Allergy-Mild): 15 s
Total Dose ([1]; Allergy-Mild): 40 s
Total Treatment Time ([1]; Allergy-Mild): >0.7 min
Est. Rate ([1]; Allergy-Moderate): 2 mL/s
Est. Total Dose ([1]; Allergy-Moderate): 31 mL
Number of Doses ([1]; Allergy-Moderate): 2 #
Single Dose Duration ([1]; Allergy-Moderate): 3 s
Total Dose ([1]; Allergy-Moderate): 16 s
Total Treatment Time ([1]; Allergy-Moderate): >0.2 min
Est. Rate ([1]; Allergy-Severe): 4 mL/s
Est. Total Dose ([1]; Allergy-Severe): 156 mL
Number of Doses ([1]; Allergy-Severe): 2 #
Single Dose Duration ([1]; Allergy-Severe): 17 s
Total Dose ([1]; Allergy-Severe): 46 s
Total Treatment Time ([1]; Allergy-Severe): >3.9 min
efficacy ([1]; allergic rhinitis, occurring in seconds to minutes): 88-100%
adverse after effects of treatment ([1]; allergy subjects): No subjects reported any adverse after effects
onset of symptom relief ([1]; allergy, while administering the first dose): immediate onset of symptom relief within seconds
oral versus nasal administration ([1]; oral administration via pursed lips, allergic inflammation extending into the oral cavity): more effective
time of recurrence of allergy symptoms post-treatment ([1]; recurrences): ≥ 3 h
tolerance of high flow rates, oral versus nasal ([2]; seven subjects): better tolerated orally than nasally
Effective Nasal Rate [2, 12]: 1 to 2 mL/s
Effective Oral Rate [2, 12]: 5 to 10 mL/s
Max Tolerable Nasal Rate [2, 12]: 3 mL/s
Max Tolerable Oral Rate [2, 12]: >10* ml/sec
Effective Nasal Rate [2, 13]: 2 mL/s
Effective Oral Rate [2, 13]: 2 mL/s
Max Tolerable Nasal Rate [2, 13]: 4 mL/s
Max Tolerable Oral Rate [2, 13]: >10* ml/sec
Effective Nasal Rate [2, 14]: 4 to 5 mL/s
Effective Oral Rate [2, 14]: 5 to 10 mL/s
Max Tolerable Nasal Rate [2, 14]: 10 mL/s
Max Tolerable Oral Rate [2, 14]: >10* ml/sec
Effective Nasal Rate [2, 15]: <1 mL/s
Effective Oral Rate [2, 15]: 5 to 10 mL/s
Max Tolerable Nasal Rate [2, 15]: 2 mL/s
Max Tolerable Oral Rate [2, 15]: >10* ml/sec
Effective Nasal Rate [2, 16]: 4 to 5 mL/s
Effective Oral Rate [2, 16]: 5 to 10 mL/s
Max Tolerable Nasal Rate [2, 16]: 10 mL/s
Max Tolerable Oral Rate [2, 16]: >10* ml/sec
Effective Nasal Rate [2, 17]: <1 mL/s
Effective Oral Rate [2, 17]: >10* ml/sec
Max Tolerable Nasal Rate [2, 17]: <1 mL/s
Max Tolerable Oral Rate [2, 17]: >10* ml/sec
Effective Nasal Rate [2, 18]: 4 to 5 mL/s
Effective Oral Rate [2, 18]: 5 to 10 mL/s
Max Tolerable Nasal Rate [2, 18]: 10 mL/s
Max Tolerable Oral Rate [2, 18]: >10* ml/sec
